Entries after “also recorded” stand apart in the source; their conditions may differ. Marks after values point to notes of the source that are not given here.
Columns and labels:
[1] = tested on: nuclear factor NFκB; details: human Jurkat cells; cited from earlier work
[2] = 25 mg three times daily; cited from earlier work
[3] = tested on: bronchial dysplasia; assay: Phase IIb randomized placebo-controlled trial: histopathology grade of bronchial biopsies before and after six months; type: in vivo, human
Method: One hundred and one volunteer current and former smokers with ≧30 pack-years smoking history and bronchial dysplasia identified by autofluorescence bronchoscopy directed biopsies were randomly assigned to receive ADT 25 mg orally TID or placebo for six months followed by a repeat bronchoscopy and biopsy of the same sites plus any new areas suspicious of dysplasia. Changes in the histopathology grade of the biopsies were used as the primary endpoint biomarker. All P values were two-sided.
Assessment For Eligibility. Five hundred and fifty-eight current and former smokers over 40 years of age in the Greater Vancouver area with a smoking history of ≧30 pack-years were invited to take part in the study. A former smoker was defined as one who had given up smoking for a year or more. They were recruited through the community outreach network of the public relations department of the British Columbia Cancer Agency (BCCA) using television programs, radio broadcasts and local newspapers. Following an initial interview, which included a questionnaire to document the smoking history, a sputum sample was obtained by induction using simultaneous high frequency chest wall oscillation with the ABI vest (Advanced Respiratory Inc. St. Pauls, Minn.) and 3% hypertonic saline for 12 minutes. […] Of these, 262 agreed to have an autofluorescence bronchoscopy with the LIFE-Lung device (Xillix Technologies Corp., Richmond, BC, Canada) (Lam et al., 1998; Lam et al., 1999). Biopsies were taken from areas with abnormal fluorescence (Lam et al., 1998; Lam et al., 1999). In addition, at least two control biopsies were taken from an upper or lower lobe. The average number of biopsies per subject was 6.7 (range 4 to 12).
Randomization. Participants with one or more sites of bronchial dysplasia were randomly assigned to receive either Sialor® (Solvay Pharma, France) at a dose of 25 mg three times daily by mouth or its placebo for six months. The placebo tablets were identical in size, shape and color to the active drug. Randomization codes were generated by a statistician at the Population and Prevention Oncology Division of BCCA and distributed to the BCCA pharmacy. All study personnel were blinded to the study coeds. Randomization was stratified according to the smoking status (current or former smoker) and dysplasia grade (mild, moderate or severe). Once a participant met the enrollment criteria, the study nurse contacted the pharmacist who then provided the study medication according to the randomization code.
(§1) Follow Up. The participants were seen monthly for examination of drug related adverse events. Liver enzymes were measured at baseline and at months 3 and 6 for toxicity monitoring. Fluorescence bronchoscopy was repeated after 6 months of study medication. The bronchoscopist was blinded to the intervention assignment. All previously biopsied sites were identified and re-biopsied under fluorescence bronchoscopy. Biopsy was also taken from new areas with abnormal fluorescence.
The primary outcome of the study was changes in the histopathology grade of the bronchial biopsies before and after six months of intervention. The secondary endpoint was changes in the nuclear morphometry index of the bronchial biopsies.
The biopsies were fixed in buffered formalin, embedded in paraffin, sectioned and stained with hematoxylin-eosin (H&E). Two pathologists (JCL, AFG) systematically reviewed them. The pathologists were blinded to the treatment assignments. All biopsies were classified into one of seven groups. Normal: as represented by pseudostratified ciliated columnar epithelium. Basal cell hyperplasia: as represented by an increase in the number and stratification of normal-appearing basal cells still covered with normal ciliated or mucin secreting cells. Metaplasia: as represented by a stratified epithelium and cytoplasmic changes consistent with squamoid differentiation. […]

[4] = Phase IIb trial: adverse events and toxicity monitoring; type: in vivo, human
Method: as §1

[5] = tested on: intracellular glutathione; details: animals pretreated with various toxins and normal animals; cited from earlier work
[6] = tested on: aflatoxin tumorigenicity; details: rats; cited from earlier work
[7] = tested on: lipid peroxidation; details: in-vitro, rat liver microsome model; cited from earlier work
[8] = histopathology, lesion specific, 6 months
[9] = histopathology, person specific, of 56

Q: Which results are given for `COc1ccc(-c2cc(=S)ss2)cc1` [ADT, 5-(p-methoxyphenyl)-1,2-dithiole-3-thione]?
A: Modulation of NFκB activation [1]: capable of modulating; Safety and efficacy at therapeutic dose [2]: safe and effective; Progression of pre-existing dysplastic lesions and/or appearance of new lesions compared to placebo ([3]; 6 months, 25 mg orally TID): significantly lower rate of progression; also recorded: statistically reduces the appearances of new dysplastic lesion or progression of pre-existing dysplastic lesions; CR or PD rates, full dose compared to reduced dose ([3]; all P-values >0.90): no significant difference in the CR or PD rates; Biopsies of grade 1 (normal/hyperplasia) at 6 months follow-up ([3]; baseline grade 1): 100; Biopsies of grade 2 (metaplasia) at 6 months follow-up ([3]; baseline grade 1): 9; Biopsies of grade 3 (mild dysplasia) at 6 months follow-up ([3]; baseline grade 1): 5; Biopsies of grade 4 (moderate dysplasia) at 6 months follow-up ([3]; baseline grade 1): 2; Biopsies of grade 5 (severe dysplasia) at 6 months follow-up ([3]; baseline grade 1): 0; Biopsies of grade 1 (normal/hyperplasia) at 6 months follow-up ([3]; baseline grade 2): 22; Biopsies of grade 2 (metaplasia) at 6 months follow-up ([3]; baseline grade 2): 2; Biopsies of grade 3 (mild dysplasia) at 6 months follow-up ([3]; baseline grade 2): 3; Biopsies of grade 4 (moderate dysplasia) at 6 months follow-up ([3]; baseline grade 2): 0; Biopsies of grade 5 (severe dysplasia) at 6 months follow-up ([3]; baseline grade 2): 0; Biopsies of grade 1 (normal/hyperplasia) at 6 months follow-up ([3]; baseline grade 3): 53; Biopsies of grade 2 (metaplasia) at 6 months follow-up ([3]; baseline grade 3): 14; Biopsies of grade 3 (mild dysplasia) at 6 months follow-up ([3]; baseline grade 3): 27; Biopsies of grade 4 (moderate dysplasia) at 6 months follow-up ([3]; baseline grade 3): 6; Biopsies of grade 5 (severe dysplasia) at 6 months follow-up ([3]; baseline grade 3): 0; Biopsies of grade 1 (normal/hyperplasia) at 6 months follow-up ([3]; baseline grade 4): 8; Biopsies of grade 2 (metaplasia) at 6 months follow-up ([3]; baseline grade 4): 0; Biopsies of grade 3 (mild dysplasia) at 6 months follow-up ([3]; baseline grade 4): 2; Biopsies of grade 4 (moderate dysplasia) at 6 months follow-up ([3]; baseline grade 4): 3; Biopsies of grade 5 (severe dysplasia) at 6 months follow-up ([3]; baseline grade 4): 1; Biopsies of grade 1 (normal/hyperplasia) at 6 months follow-up ([3]; baseline grade 5): 0; Biopsies of grade 2 (metaplasia) at 6 months follow-up ([3]; baseline grade 5): 0; Biopsies of grade 3 (mild dysplasia) at 6 months follow-up ([3]; baseline grade 5): 2; Biopsies of grade 4 (moderate dysplasia) at 6 months follow-up ([3]; baseline grade 5): 0; Biopsies of grade 5 (severe dysplasia) at 6 months follow-up ([3]; baseline grade 5): 0; Biopsies of grade 1 (normal/hyperplasia) at 6 months follow-up ([3]; baseline: not sampled): 34; Biopsies of grade 2 (metaplasia) at 6 months follow-up ([3]; baseline: not sampled): 8; Biopsies of grade 3 (mild dysplasia) at 6 months follow-up ([3]; baseline: not sampled): 13; Biopsies of grade 4 (moderate dysplasia) at 6 months follow-up ([3]; baseline: not sampled): 0; Biopsies of grade 5 (severe dysplasia) at 6 months follow-up ([3]; baseline: not sampled): 1; CR rate ([3]; dose reduction yes): 24%; PD rate ([3]; dose reduction yes): 32%; PR rate ([3]; dose reduction yes): 32%; CR, number of participants ([3]; dose reduction yes, of 25): 6; PD, number of participants ([3]; dose reduction yes, of 25): 8; PR, number of participants ([3]; dose reduction yes, of 25): 8; PD rate lower than placebo, person specific analysis ([3]; histopathology, 6 months): 22%; Partial response (PR) rate, person specific analysis ([3]; histopathology, 6 months): (23%); Stable disease (SD) rate, person specific analysis ([3]; histopathology, 6 months): (18%); Progressive disease (PD) rate, lesion specific analysis ([3]; histopathology, 6 months ADT 25 mg orally TID, placebo 17%, P<0.001): 8%; Complete response (CR) rate, lesion specific analysis ([3]; histopathology, 6 months, placebo 41%, P=0.14): 53%; PD rate lower than placebo, lesion specific analysis ([3]; histopathology, 8% ADT versus 17% placebo): 9%; CR rate higher than placebo, person specific analysis ([3]; histopathology, 27% versus 16%): 11%; CR rate higher than placebo, lesion specific analysis ([3]; histopathology, 53% versus 41%, not significant): 12%; CR lesions / dysplastic lesions at baseline [3, 8]: 61/116; PD lesions / all biopsies [3, 8]: 24/315; CR, number of participants [3, 9]: 15; PD, number of participants [3, 9]: 18; PR, number of participants [3, 9]: 13; Association of treatment with odds of CR ([3]; multiple logistic regression): not significantly associated with increasing odds of CR; OR, likelihood of progressive disease six months after intervention ([3]; multiple logistic regression, ADT is reference, placebo OR 3.5 (95% CI 1.3-9.3, P 0.01)): 1; PD rate ([3]; no dose reduction): 32%; PR rate ([3]; no dose reduction): 16%; CR rate ([3]; no dose reduction (full 25 mg TID)): 29%; CR, number of participants ([3]; no dose reduction (full 25 mg TID), of 31): 9; PD, number of participants ([3]; no dose reduction, of 31): 10; PR, number of participants ([3]; no dose reduction, of 31): 5; Biopsies of grade 1 (normal/hyperplasia) at 6 months follow-up ([3]; total of all baseline grades): 217; Biopsies of grade 2 (metaplasia) at 6 months follow-up ([3]; total of all baseline grades): 33; Biopsies of grade 3 (mild dysplasia) at 6 months follow-up ([3]; total of all baseline grades): 52; Biopsies of grade 4 (moderate dysplasia) at 6 months follow-up ([3]; total of all baseline grades): 11; Biopsies of grade 5 (severe dysplasia) at 6 months follow-up ([3]; total of all baseline grades): 2; Adverse events, overall description ([4]; 25 mg orally TID, six months): mostly minor gastrointestinal symptoms that resolved with dose reduction or discontinuation of the medication; also recorded: only adverse events observed were gastrointestinal; Symptoms significantly more frequent than with placebo ([4]; P=0.018): Only abdominal bloating was significantly more frequent; Subjects with dose reduced to 25 mg BID ([4]; of 56): 17; Subjects with dose reduced to 25 mg QD ([4]; of 56): 4; Constipation ([4]; placebo 0%): 5%; Increased Saliva ([4]; placebo 4%): 2%; Abdominal Bloating ([4]; placebo 4%, P = 0.01 compared to placebo): 25%*; Participants with Grade 3 symptoms ([4]; placebo 6%): 11%; Loose Stool ([4]; placebo 8%): 16%; Diarrhea ([4]; placebo 12%): 13%; Participants with Grade 2 symptoms ([4]; placebo 20%): 51%; Participants requiring dose reduction ([4]; placebo 25%): 45%; Excessive Flatus ([4]; placebo 53%): 93%; Grade 3 elevation of liver enzymes ([4]; returned to normal after discontinuation): One of the participants; Intracellular glutathione [5]: increase of intracellular glutathione; Protection against aflatoxin tumorigenicity [6]: protective action against aflatoxin tumorigenicity; Inhibition of lipid peroxidation [7]: potent inhibitor of lipid peroxidation

— US20050182128A1, “Use of anethole dithiolethione in lung cancer chemoprevention” (priority 2002, published 2005)
